# Laboratory results published in US20250228820A1, “METHODS FOR PREVENTING OR SLOWING THE PROGRESSION OF COGNITIVE DECLINE OR IMPAIRMENT IN SUBJECTS DISPLAYING NORMAL COGNITIVE PERFORMANCE” (AGENEBIO, INC., priority 2022, published 2025).
# Several values for one entry are separate records, joined by “and”; a condition that tells them apart may be missing. Equal entries are not always repeated.
# Experiments:
# [1] = cited from earlier work
# [2] = system: hippocampal functional connectivity; experiment: Phase II placebo-controlled crossover trial: hippocampal functional connectivity by resting-state fMRI in cognitively normal subjects; type: in vivo, human
# Protocol: (§1) A phase II, randomized, double-blind, placebo-controlled crossover clinical trial of 26 CN subjects (ranging in age from 55 to 75 years) to assess the potential effect of levetiracetam on hippocampal functional connectivity (a risk marker for cognitive decline and cognitive impairment and progression to AD) was conducted. 35 patients were recruited and assessed for eligibility and the 26 eligible subjects were separated into Group A or Group B treatment groups. Group A subjects received an oral placebo tablet daily for two weeks followed by a four-week washout period; then, the subjects received an oral levetiracetam tablet daily for two weeks (i.e., two-week placebo treatment, four-week washout period, and two-week levetiracetam treatment). Group B subjects received treatment using the reverse sequence (i.e., two-week levetiracetam treatment, four-week washout period, and two-week placebo treatment). The tablet was characterized by 220 mg levetiracetam in extended release form, i.e. Tablet D (Table 2) above.
# For each scanning session, imaging was carried out on a 3T GE MR750 whole-body scanner (GE Healthcare, Waukesha WI) with a body transmit and a 32-channel head receive coil (Nova Medical, Wilmington MA). Imaging acquisition included T1- and T2-weighted high resolution, anatomical images (TR=2521.27 ms, TE=3.596 ms, Voxel resolution: 0.5×0.5×0.8 mm3, FOV: 25.6 cm, Flip angle: 8°). […]
# Total Functional connectivity indices (TFCI) were obtained based on the traditional region of interest (ROI)-based method (Chen et al, 2011) in which individual cerebrums were automatically parcellated into 90 regions, per the Automated Anatomical Labeling (AAL) toolbox (3), and the FCI was calculated as the summation of Pearson cross-correlation coefficients between the seed region and all other regions in the cerebrum. […] Second, functional connectivity between each ROI and the other brain regions was calculated using the Pearson cross-correlation analysis. […]
# [3] = Levetiracetam level in blood after treatment in the LEV-HFC trial; type: in vivo, human; conditions: after two-week treatment with levetiracetam 220 mg extended release daily
# Protocol: as §1
# A total of 25 participants (15 women with a mean [SD] age of 65.9 [3.8] years and 10 men with a mean [SD] age of 66.7 [5.5] years) were enrolled, randomized (12 participants to group A and 13 participants to group B), and completed the study. […]
compound,measurement,setting,value
"CC[C@@H](C(N)=O)N1CCCC1=O [Levetiracetam, (2S)-2-(2-oxopyrrolidin-1-yl) butanamide]",Plasma half-life in elderly,[1]; expected in elderly due to decreased renal function,9 to 10 h
same,Time of peak plasma concentrations,[1]; following oral administration,about 1 hour
same,Plasma half-life,[1]; in vivo,approximately 7±1 hour
same,Time to steady state,[1]; multiple twice-daily dosing,2 days
same,Absorption after oral administration,[1]; oral,rapidly and almost completely absorbed
same,Effect of food on bioavailability,[1]; oral,not affected by food
same,"Functional connectivity of the hippocampus network, levetiracetam compared with placebo","[2]; 220 mg extended release tablet (Tablet D) daily for two weeks, 25 CN subjects, paired t-test, t=−2.8044, p<0.0098, FIG. 6",significantly decreased
same,Period I FC (hippocampal functional connectivity),"[2]; individual subjects, first two-week period, levetiracetam 220 mg extended release daily (numbers without *)",0.209 and 0.602 and 0.148 (2×) and 0.241 and 0.138 and 0.099 and 0.136 and 0.504 and 0.253 and 0.367 and 0.173 and 0.303
same,Period II FC (hippocampal functional connectivity),"[2]; individual subjects, second two-week period after four-week washout, levetiracetam 220 mg extended release daily (numbers without *)",0.264 and 0.238 and 0.366 and 0.013 and 0.352 and 0.31 and 0.048 and 0.177 (2×) and 0.17 and 0.106 and 0.28
same,"LEV [μg] in blood, AVG",[3]; average of 25 subjects,4.3 µg
same,LEV [μg] in blood,"[3]; individual subjects, listed as LEV",3 μg and 4.5 μg and 4.8 μg and 6.1 μg and 2.9 μg and 4.1 μg (2×) and 5.1 μg and 4.4 μg (2×) and 6.3 μg and 4.9 μg and 4.2 μg and 3.1 μg and 2.8 μg and 3.8 μg (2×) and 5.8 μg and 5 μg and 3.2 μg and 3.4 μg and 4 μg and 4.7 μg and 2 μg and 8.2 μg
